Results as given in patent publication US9796742B2, “Kinase inhibitors” (Respivert Limited, priority 2012, dated 2017).
Where two headings read alike, the source gives them in different places.

What was measured:
Syk = Syk (Homo sapiens (Human), UniProt P43405); test: Syk enzyme inhibition (FRET, Z-LYTE); format: biochemical
Outline: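 Z-LYTE FRET peptide assay with enzyme preincubated with compound for 2 h at RT, then 1 h kinase reaction and 1 h protease development. ATP solutions were 800 μM for c-Src and 60 μM for Syk. Inhibition was taken from the coumarin/fluorescein emission ratio, and IC50 from concentration-response curves.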

HT29 cells = test: IL-1β-induced IL-8 release in HT29 cells; format: cell-based; conditions: Homo sapiens, HT-29, IL-1β-stimulated HT29 cells, read-out: IC50 Values for Inhibition of Cytokine Release, HT29 cells IL-8
Method: HT29 cells, a human colon adenocarcinorna cell line, are plated in a 96 well plate (24 hrs) and pre-treated with compounds at the desired concentration for 2 hours before addition of 5 ng/mL of IL-1β (Abcam) for 24 hours. Supernatants are harvested for IL-8 quantification by Sandwich ELISA (Duo-set, R&D System). The IC50 is determined from the dose response curve.

PBMCs = test: IL-2 and IFN gamma release in CD3/CD28 stimulated PBMC cells; format: cell-based; conditions: Homo sapiens
Outline: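 They were cultured with compound for 3 days. IL-2 and IFN-γ in supernatants were quantified by sandwich ELISA, and IC50 was derived from the dose-response curve.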

p38 MAPKα = p38 MAPKα (Homo sapiens (Human), UniProt Q16539); test: p38 MAPKα enzyme inhibition (FRET, Z-LYTE; Method 2); format: biochemical
Chain of p38 MAPKα (Q16539 whole entry): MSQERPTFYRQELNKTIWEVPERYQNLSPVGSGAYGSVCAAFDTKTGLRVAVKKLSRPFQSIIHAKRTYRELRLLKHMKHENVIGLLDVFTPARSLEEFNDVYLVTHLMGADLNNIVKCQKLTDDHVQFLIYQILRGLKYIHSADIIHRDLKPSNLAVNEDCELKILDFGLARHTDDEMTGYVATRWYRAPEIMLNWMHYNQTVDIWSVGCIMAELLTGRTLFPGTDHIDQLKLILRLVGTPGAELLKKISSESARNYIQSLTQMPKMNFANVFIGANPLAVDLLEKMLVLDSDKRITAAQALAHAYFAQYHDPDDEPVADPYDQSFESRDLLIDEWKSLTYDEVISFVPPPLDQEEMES
Outline: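 p38 MAPKα (2.5 μL of 200 ng/mL stock) preincubated 2 h at RT with compound, then kinase reaction 1 h at RT with readout via MAPKAP-K2 activation using a Z-LYTE FRET peptide. Protease development 1 h; coumarin/fluorescein emission ratio gives phosphorylation. % inhibition versus uninhibited control; IC50 from concentration-response curve.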

IC50 (Syk): 8 nM
IC50 (HT29 cells): 0.8 nM
IC50 (p38 MAPKα): 71 nM
SMILES: COCCOCCOCCOc1cc(Nc2nccc(Oc3ccc(NC(=O)Nc4cc(C(C)(C)C)nn4-c4cccc(CP(C)(C)=O)c4)c4ccccc34)n2)cc(OC)c1 [Example 60, 1-(3-(tert-Butyl)-1-(3-((dimethylphosphoryl)methyl)phenyl)-1H-pyrazol-5-yl)-3-(4-((2-((3-methoxy-5-(2-(2-(2-methoxyethoxy)ethoxy)ethoxy)phenyl)amino)pyrimidin-4-yl)oxy)-naphthalen-1-yl)urea]
IC50 (PBMCs; IFNγ, read-out: IC50 Values for Inhibition of Cytokine Release, PBMCs IFNγ): 1.9 nM
IC50 (PBMCs; IL-2, read-out: IC50 Values for Inhibition of Cytokine Release, PBMCs IL-2): 16 nM
